The text below walks through data of ChEMBL document CHEMBL1147545, “Synthesis and monoamine transporter affinity of 3'-analogs of 2-beta-carbomethoxy-3-beta-(4'-iodophenyl)tropane (beta-CIT)” (Bioorg Med Chem Lett, 2004).

In test [1] the target is Sodium-dependent dopamine transporter (Homo sapiens, UniProt Q01959). Put plainly: Binding affinity to dopamine transporter in membranes of cells selectively expressing the human genes for DAT. In kind it is cell membranes.
Test [2] concerns the target Norepinephrine transporter (Rattus norvegicus, UniProt Q9WTR4). Nature of the test: Binding affinity to norepinephrine (NE) transporter in rat forebrain tissue. It counts as tissue-based.
Test [3] has as its target Sodium-dependent dopamine transporter (Rattus norvegicus, UniProt P23977). Nature of the test: Binding affinity to dopamine transporter (DAT) in rat forebrain tissue. In kind it is tissue-based.
Test [4] concerns the target Sodium-dependent noradrenaline transporter (Homo sapiens, UniProt P23975). Nature of the test: Binding affinity to norepinephrine (NE) transporter in membranes of cells selectively expressing the human genes for NET. In kind it is cell membranes.
Test [5] deals with Sodium-dependent serotonin transporter (Homo sapiens, UniProt P31645). Nature of the test: Binding affinity to serotonin transporter (SERT) in membranes of cells selectively expressing the human genes for SERT. In kind it is cell membranes.
In test [6] the target is Monoamine transporters; serotonin & dopamine (Homo sapiens) (UniProt P31645+Q01959). Put plainly: Binding selectivity ratio at human serotonin transporter versus dopamine transporter (hSERT/hDAT). In kind it is protein assay.
Test [7] addresses Sodium-dependent serotonin transporter (Rattus norvegicus, UniProt P31652). Nature of the test: Binding affinity to serotonin transporter (SERT) in rat forebrain tissue. In kind it is tissue-based.

Bounds are passed on as bounds.

Chain of Norepinephrine transporter (Q9WTR4 whole entry): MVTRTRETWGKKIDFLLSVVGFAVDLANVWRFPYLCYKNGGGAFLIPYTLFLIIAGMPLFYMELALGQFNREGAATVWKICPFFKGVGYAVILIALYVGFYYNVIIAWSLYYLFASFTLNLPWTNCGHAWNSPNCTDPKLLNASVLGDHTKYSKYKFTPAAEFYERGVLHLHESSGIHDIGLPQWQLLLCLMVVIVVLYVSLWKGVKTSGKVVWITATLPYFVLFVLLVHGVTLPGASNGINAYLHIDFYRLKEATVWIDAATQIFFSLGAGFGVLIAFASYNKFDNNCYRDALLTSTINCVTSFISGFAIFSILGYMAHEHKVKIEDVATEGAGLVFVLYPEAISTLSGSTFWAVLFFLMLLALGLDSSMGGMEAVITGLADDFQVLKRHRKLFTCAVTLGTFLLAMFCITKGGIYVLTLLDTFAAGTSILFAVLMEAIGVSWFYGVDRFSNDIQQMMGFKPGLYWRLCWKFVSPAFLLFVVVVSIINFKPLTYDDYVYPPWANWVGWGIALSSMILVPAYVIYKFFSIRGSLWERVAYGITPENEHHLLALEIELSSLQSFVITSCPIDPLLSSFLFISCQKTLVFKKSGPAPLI
Chain of Sodium-dependent serotonin transporter (Homo sapiens, UniProt P31645) (P31645 whole entry): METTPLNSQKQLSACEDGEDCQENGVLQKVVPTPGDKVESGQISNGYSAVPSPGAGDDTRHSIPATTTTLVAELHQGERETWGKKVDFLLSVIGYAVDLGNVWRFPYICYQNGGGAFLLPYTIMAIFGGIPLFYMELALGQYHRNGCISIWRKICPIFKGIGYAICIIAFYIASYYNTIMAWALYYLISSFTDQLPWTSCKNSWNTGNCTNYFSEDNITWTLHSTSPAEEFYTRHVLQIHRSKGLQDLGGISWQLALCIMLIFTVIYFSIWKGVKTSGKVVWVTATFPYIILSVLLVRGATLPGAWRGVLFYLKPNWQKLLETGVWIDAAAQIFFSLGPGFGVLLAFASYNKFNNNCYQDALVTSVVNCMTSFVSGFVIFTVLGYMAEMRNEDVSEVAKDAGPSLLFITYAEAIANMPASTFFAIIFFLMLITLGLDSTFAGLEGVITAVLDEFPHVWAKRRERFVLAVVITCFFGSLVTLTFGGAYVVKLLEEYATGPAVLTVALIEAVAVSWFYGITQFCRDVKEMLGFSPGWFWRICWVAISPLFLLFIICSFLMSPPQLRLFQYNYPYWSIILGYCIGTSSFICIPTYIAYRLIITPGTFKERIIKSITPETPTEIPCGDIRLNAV
Chain of Monoamine transporters; serotonin & dopamine (Homo sapiens) (P31645 whole entry, looked up): as the sequence (P31645 whole entry) above
Chain of Monoamine transporters; serotonin & dopamine (Homo sapiens) (Q01959 whole entry, looked up): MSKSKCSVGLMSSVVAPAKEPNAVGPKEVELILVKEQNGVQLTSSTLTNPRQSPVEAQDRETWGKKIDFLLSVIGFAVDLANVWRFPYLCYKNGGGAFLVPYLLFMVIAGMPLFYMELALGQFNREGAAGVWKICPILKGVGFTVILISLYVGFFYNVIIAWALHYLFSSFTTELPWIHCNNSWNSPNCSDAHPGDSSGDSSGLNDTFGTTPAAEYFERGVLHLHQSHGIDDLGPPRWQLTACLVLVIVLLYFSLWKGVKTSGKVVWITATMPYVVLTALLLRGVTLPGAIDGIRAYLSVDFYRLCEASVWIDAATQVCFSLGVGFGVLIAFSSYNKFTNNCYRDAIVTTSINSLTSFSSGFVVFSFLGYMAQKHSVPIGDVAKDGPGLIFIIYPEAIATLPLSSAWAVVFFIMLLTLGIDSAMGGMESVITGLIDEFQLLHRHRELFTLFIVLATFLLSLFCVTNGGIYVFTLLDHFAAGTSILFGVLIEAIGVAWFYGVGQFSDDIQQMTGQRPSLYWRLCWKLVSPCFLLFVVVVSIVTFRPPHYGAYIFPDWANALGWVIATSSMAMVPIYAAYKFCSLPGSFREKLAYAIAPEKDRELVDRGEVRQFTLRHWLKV
Chain of Sodium-dependent noradrenaline transporter (P23975 whole entry): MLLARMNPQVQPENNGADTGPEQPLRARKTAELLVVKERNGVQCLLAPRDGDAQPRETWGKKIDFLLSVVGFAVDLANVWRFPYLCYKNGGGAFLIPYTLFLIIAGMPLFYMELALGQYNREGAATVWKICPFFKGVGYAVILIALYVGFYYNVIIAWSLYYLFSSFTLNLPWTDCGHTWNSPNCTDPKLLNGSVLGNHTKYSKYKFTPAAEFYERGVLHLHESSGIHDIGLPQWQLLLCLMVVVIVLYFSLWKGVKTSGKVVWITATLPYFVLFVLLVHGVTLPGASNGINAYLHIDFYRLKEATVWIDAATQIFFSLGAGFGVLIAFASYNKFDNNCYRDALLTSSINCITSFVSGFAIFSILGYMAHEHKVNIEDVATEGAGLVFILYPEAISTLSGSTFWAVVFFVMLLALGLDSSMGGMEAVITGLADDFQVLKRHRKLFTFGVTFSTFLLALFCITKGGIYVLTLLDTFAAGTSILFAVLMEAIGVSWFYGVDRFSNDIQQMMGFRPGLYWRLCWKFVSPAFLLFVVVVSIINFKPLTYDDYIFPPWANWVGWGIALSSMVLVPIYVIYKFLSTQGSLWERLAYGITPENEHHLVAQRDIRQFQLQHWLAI
Chain of Sodium-dependent serotonin transporter (Rattus norvegicus, UniProt P31652) (P31652 whole entry): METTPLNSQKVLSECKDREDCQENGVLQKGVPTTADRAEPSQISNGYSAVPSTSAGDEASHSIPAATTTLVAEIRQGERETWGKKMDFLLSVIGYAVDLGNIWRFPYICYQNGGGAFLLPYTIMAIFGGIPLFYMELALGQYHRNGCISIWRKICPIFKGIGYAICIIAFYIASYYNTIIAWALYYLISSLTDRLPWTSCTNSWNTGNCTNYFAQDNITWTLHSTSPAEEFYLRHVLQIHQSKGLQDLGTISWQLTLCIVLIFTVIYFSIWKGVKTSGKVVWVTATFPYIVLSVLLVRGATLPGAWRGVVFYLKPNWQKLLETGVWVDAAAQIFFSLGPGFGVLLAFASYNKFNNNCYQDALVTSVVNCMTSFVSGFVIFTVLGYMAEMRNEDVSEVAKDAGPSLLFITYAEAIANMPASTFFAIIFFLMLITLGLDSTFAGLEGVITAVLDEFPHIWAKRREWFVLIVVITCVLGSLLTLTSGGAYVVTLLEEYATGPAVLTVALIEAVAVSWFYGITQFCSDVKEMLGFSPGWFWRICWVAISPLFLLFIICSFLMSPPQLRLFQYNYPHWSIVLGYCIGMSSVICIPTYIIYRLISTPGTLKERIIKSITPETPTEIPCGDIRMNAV
Chain of Sodium-dependent dopamine transporter (Rattus norvegicus, UniProt P23977) (P23977 whole entry): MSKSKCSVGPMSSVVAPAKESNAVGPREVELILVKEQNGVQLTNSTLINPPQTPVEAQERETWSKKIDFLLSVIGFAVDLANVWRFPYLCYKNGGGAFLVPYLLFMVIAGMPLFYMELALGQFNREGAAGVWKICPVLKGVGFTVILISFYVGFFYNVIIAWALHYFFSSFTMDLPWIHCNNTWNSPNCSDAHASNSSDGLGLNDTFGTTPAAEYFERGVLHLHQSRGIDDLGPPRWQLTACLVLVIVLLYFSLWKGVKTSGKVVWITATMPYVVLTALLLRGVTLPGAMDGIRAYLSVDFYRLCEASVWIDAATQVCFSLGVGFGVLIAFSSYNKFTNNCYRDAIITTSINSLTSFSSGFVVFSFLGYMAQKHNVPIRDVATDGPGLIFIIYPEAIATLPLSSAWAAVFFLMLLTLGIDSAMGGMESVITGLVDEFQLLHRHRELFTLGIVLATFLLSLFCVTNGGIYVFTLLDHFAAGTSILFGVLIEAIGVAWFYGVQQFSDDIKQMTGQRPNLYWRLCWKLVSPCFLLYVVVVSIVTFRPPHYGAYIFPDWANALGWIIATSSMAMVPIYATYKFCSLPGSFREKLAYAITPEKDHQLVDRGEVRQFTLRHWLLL
Chain of Sodium-dependent dopamine transporter (Homo sapiens, UniProt Q01959) (Q01959 whole entry): as the sequence (Q01959 whole entry, looked up) above

`COC(=O)C1C(c2cccc(I)c2)CC2CCC1N2C` (stereo not drawn): the Ki in test [1] is 182 nM; in test [2], over 10000 nM; in test [3] it was 100 nM; in test [4] it was 1040 nM; in test [5], 9.63 nM; in test [7], 9.82 nM. In addition, the Selectivity ratio in test [6] worked out at 18.9.
With `COC(=O)[C@@H]1C2CC[C@H](C[C@@H]1c1ccc(I)cc1)N2C`, the Ki in test [4] came to 11.2 nM; in test [7] it was 0.41 nM.
In the case of `COC(=O)C1C(c2cccc(-c3ccsc3)c2)CC2CCC1N2C` (stereo not drawn), the inhibition constant (Ki) in test [1] is 29.8 nM; in test [2] it was over 10000 nM; in test [3] it was 23.7 nM; in test [4], over 20000 nM; in test [5] it was 74.1 nM; in test [7], 82.5 nM. For the same compound, the Selectivity ratio in test [6] was 0.402.
`COC(=O)C1C(c2cccc(-c3ccco3)c2)CC2CCC1N2C` (stereo not drawn): the inhibition constant Ki amounted to 54 nM in test [1]; 10000 nM in test [2]; 30.8 nM in test [3]; 3020 nM in test [4]; 55.1 nM in test [5]; 41.7 nM in test [7]. Besides, the Selectivity ratio in test [6] turned out to be 0.98.
For the compound `COC(=O)C1C2CCC(CC1c1cccc(I)c1)N2` (stereo not drawn), the inhibitory constant (Ki) came out at 438 nM in test [1]; 282 nM in test [2]; 21.2 nM in test [3]; 118 nM in test [4]; 1.23 nM in test [5]; 1.35 nM in test [7]. Further, the Selectivity ratio in test [6] was determined as 356.
Turning to `COC(=O)C1C(c2cccc(-c3ccccc3)c2)CC2CCC1N2C` (stereo not drawn), the inhibitory constant (Ki) was 8.83 nM in test [1]; over 10000 nM in test [2]; 9.59 nM in test [3]; 1360 nM in test [4]; 38.6 nM in test [5]; 35.2 nM in test [7]. For the same compound, the Selectivity ratio in test [6] was 0.229.
For `COC(=O)C1C2CCC(CC1c1ccc(I)cc1)N2` (stereo not drawn), the affinity in test [7], expressed as Ki, was 0.062 nM. That is a picomolar value.
